In ChEMBL document CHEMBL1129675, “New directions in antibacterial research” (1996):
Values after ≈ are worked out from the molar mass of the structure shown. Active and inactive are the calls of the source. The rule behind the calls is not given here. Starred links: 1 amine or outer side, 2 acyl side, 3 side chain; linkers in the order of their positions; H or OH if unused. Positions of bridges follow the written chain, without caps; N, C: chain ends. Non-standard residues stand in square brackets, D forms with d. Residues, ends and D or L forms follow the SMILES beside them. X1 = O=C([C@@H](N[*:1])c1ccc(O[C@H]2OC(CO)[C@@H](O)[C@@H](O)[C@@H]2O[C@H]2O[C@@H](CO)[C@@H](O)[C@H](O)[C@H]2O)cc1)[*:2]; X2 = CC(C)C/C=C\C=C/C(=O)NC(CC(N)=O)C(=O)CC(C(=O)[*:1])C(O[*:2])C(N)=O; Hpg(3-Cl) = N[C@H](C(=O)O)c1ccc(O)c(Cl)c1; Hpg = N[C@H](C(=O)O)c1ccc(O)cc1; Orn = NCCC[C@H](N)C(=O)O

Experiments:
Pseudomonas aeruginosa = experiment: Antibacterial activity against Pseudomonas aeruginosa was determined; Active; assay type: functional, organism-based
Staphylococcus aureus [1] = experiment: Antibacterial activity against MRSA was determined; Active; assay type: functional, organism-based
[2] = Inhibitory activity against VanB enterococci; Range is 0.016-1 ug/mL; assay type: functional
Enterococcus faecium [3] = experiment: Inhibitory activity against VanA strain of E. faecium; Range is 0.03-2 ug/mL; assay type: functional
Enterococcus faecalis = experiment: Inhibitory activity against VanA strain of E. faecalis; Range is 0.03-2 ug/mL; assay type: functional
Streptococcus pneumoniae = experiment: Inhibitory activity against Streptococcus pneumoniae; assay type: functional
Streptococcus pyogenes = experiment: Inhibitory activity against Streptococcus pyogenes; assay type: functional
Staphylococcus aureus [4] = experiment: Inhibitory activity against MRSA; assay type: functional
[5] = Antibacterial activity against penicillin resistant pneumococci was determined; Active; assay type: functional
[6] = Inhibitory activity against many clinical relevent pathogen; Range is 5-50 ug/mL; assay type: functional
[7] = Inhibitory activity against Pediococcus species.; assay type: functional
[8] = Inhibitory activity against Leuconostoc species.; assay type: functional
[9] = Inhibitory activity against Lactobacillus species.; assay type: functional; settings: Bacteria
Enterococcus = experiment: Inhibitory activity against Vancomycin resistant enterococci; assay type: functional
Staphylococcus aureus [10] = experiment: Inhibitory activity against MSSA; assay type: functional
Enterococcus faecium [11] = experiment: Inhibitory activity against Enterococcus faecium; assay type: functional
[12] = system: Staphylococcus epidermidis; experiment: Inhibitory activity against methicillin-resistant Staphylococcus epidermidis (MRSE); assay type: functional
Haemophilus influenzae [13] = experiment: Inhibitory activity against Haemophilus influenzae; assay type: functional
Bacteria = experiment: Inhibitory activity against Corynebacterium; assay type: functional
Moraxella catarrhalis = experiment: Inhibitory activity against Moraxella catarrhalis; assay type: functional
[14] = system: Staphylococcus epidermidis; experiment: Inhibitory activity against methicillin-sensitive Staphylococcus epidermidis (MSSE); assay type: functional
Bacteroides fragilis = experiment: Inhibitory activity against Bacteroides fragilis; assay type: functional
Pasteurella multocida = experiment: Antibacterial activity against Pasteurella multocida; More active; assay type: functional, organism-based
[15] = Antibacterial activity against […] species.; More active; assay type: functional
Helicobacter pylori = experiment: Antibacterial activity against Helicobacter pylori; Exhibits good activity; assay type: functional, organism-based
[16] = Antibacterial activity against Legionella; More active; assay type: functional
Streptococcus sp. = experiment: Antibacterial activity against Streptococci; Retention of potent activity; assay type: functional, organism-based
Haemophilus influenzae [17] = experiment: Antibacterial activity against Haemophilus influenzae; Active; assay type: functional, organism-based
Chlamydia = experiment: Antibacterial activity against Chlamydia; More active; assay type: functional, organism-based

With `C[C@@H](O)[C@H]1C(=O)N2C(C(=O)O)=C(SCCNC=N)C[C@H]12` the Activity (Pseudomonas aeruginosa) was “Active”.

For `C[C@H](O)[C@H]1C(=O)N2C(C(=O)[O-])=C(Sc3nc(-c4cc[n+](CC(N)=O)cc4)cs3)[C@H](C)[C@H]12`, the Activity (Staphylococcus aureus [1]) was “Active”.

`CCCCC1CCC(CN[C@@]2(C)C[C@@H](O[C@H]3[C@H](Oc4c5cc6cc4Oc4ccc(cc4Cl)[C@@H](C[C@H]4C[C@](C)(N)[C@@H](O)[C@H](C)O4)[C@]4(C)NC(=O)[C@H](NC(=O)[C@@H]6NC(=O)[C@H](CC(N)=O)NC(=O)[C@H](NC(=O)[C@@H](CC(C)C)NC)[C@H](O)c6ccc(c(Cl)c6)O5)c5ccc(O)c(c5)-c5c(O)cc(O)cc5[C@@H](C(=O)O)NC4=O)O[C@H](CO)[C@@H](O)[C@@H]3O)O[C@@H](C)[C@@H]2O)CC1` (stereo not given in full) gave an MIC [2] of 0.016 µg/mL (≈ 0.00911 µM), an MIC (Enterococcus faecium [3]) of 0.03 µg/mL (≈ 0.0171 µM) and an MIC (Enterococcus faecalis) of 0.03 µg/mL (≈ 0.0171 µM). The MIC (Streptococcus pneumoniae) was < 0.008 µg/mL, the MIC (Streptococcus pyogenes) was < 0.06 µg/mL and the MIC (Staphylococcus aureus [4]) was ≤ 0.5 µg/mL.

For `C[C@@H](O)[C@H]1C(=O)N2C(C(=O)[O-])=C(c3ccc4c(c3)-c3ccc(C[n+]5ccn(C)c5)cc3C4=O)C[C@H]12`, the Activity (Staphylococcus aureus [1]) was “Active” and the Activity [5] was “Active”.

For `C[C@@H]1[C@H](NC(=O)/C(=N\OCC(=O)NNC(=O)c2nc3cc(O)c(O)cc3nc2C(=O)O)c2csc(N)n2)C(=O)N1S(=O)(=O)O`, the Activity (Pseudomonas aeruginosa) was “Active”.

`CC[C@H](C)[C@H](NC(=O)CN)C(=O)NCC(=O)N[C@@H](CCCCN)C(=O)N[C@@H](Cc1ccccc1)C(=O)N[C@@H](CC(C)C)C(=O)N[C@@H](Cc1c[nH]cn1)C(=O)N[C@@H](CO)C(=O)N[C@@H](C)C(=O)N[C@@H](CCCCN)C(=O)N[C@@H](CCCCN)C(=O)N[C@@H](Cc1ccccc1)C(=O)NCC(=O)N[C@@H](CCCCN)C(=O)N[C@@H](C)C(=O)N[C@@H](Cc1ccccc1)C(=O)N[C@H](C(=O)NCC(=O)N[C@@H](CCC(=O)O)C(=O)N[C@H](C(=O)N[C@@H](CCSC)C(=O)N[C@@H](CC(N)=O)C(=O)N[C@@H](CO)C(=O)O)[C@@H](C)CC)C(C)C` [MAGAININ 2] (H-GIGKFLHSAKKFGKAFVGEIMNS-OH) showed an MIC [6] of 5 µg/mL (≈ 2.03 µM).

With `CC(C)C/C=C\C=C/C(=O)NC(CC(N)=O)C(=O)CC1C(=O)N[C@@H](c2ccc(O)cc2)C(=O)N[C@@H](CCCN)C(=O)N[C@@H]([C@@H](C)O)C(=O)N[C@@H](c2ccc(O)cc2)C(=O)N[C@@H](c2ccc(O)cc2)C(=O)N[C@@H]([C@@H](C)O)C(=O)N[C@@H](Cc2ccccc2)C(=O)N[C@@H](CCCN)C(=O)N[C@@H](c2ccc(O[C@H]3OC(CO)[C@@H](O)[C@@H](O)[C@@H]3O[C@H]3O[C@@H](CO)[C@@H](O)[C@H](O)[C@H]3O)cc2)C(=O)N[C@@H]([C@@H](C)O)C(=O)N[C@@H](c2ccc(O)cc2)C(=O)NCC(=O)N[C@@H](CC(C)C)C(=O)N[C@@H](C)C(=O)N[C@@H](c2ccc(O)c(Cl)c2)C(=O)OC1C(N)=O` (stereo not given in full) ([Hpg][Orn]T[Hpg][Hpg]TF[Orn][X1]T[Hpg]GLA[Hpg(3-Cl)]; linker N-C via X2) the MIC90 [7] was ≤ 0.25 µg/mL, the MIC90 [8] was ≤ 0.25 µg/mL and the MIC90 [9] was ≤ 0.25 µg/mL. For the same molecule, the MIC90 (Enterococcus) was 0.5 µg/mL (≈ 0.196 µM).

For `CC(=O)NC[C@H]1CN(c2ccc(N3CCN(C(=O)CO)CC3)c(F)c2)C(=O)O1` [EPEREZOLID], the MIC90 (Staphylococcus aureus [10]) was 4 µg/mL (≈ 10.1 µM), the MIC90 (Enterococcus faecium [11]) was 2 µg/mL (≈ 5.07 µM) and the MIC90 [12] was 1 µg/mL (≈ 2.54 µM). It also gave an MIC90 (Haemophilus influenzae [13]) of 16 µg/mL (≈ 40.6 µM), an MIC90 (Streptococcus pneumoniae) of 0.5 µg/mL (≈ 1.27 µM) and an MIC90 (Bacteria) of 0.5 µg/mL (≈ 1.27 µM). It also gave an MIC90 (Moraxella catarrhalis) of 4 µg/mL (≈ 10.1 µM), an MIC90 [14] of 1 µg/mL (≈ 2.54 µM) and an MIC90 (Bacteroides fragilis) of 16 µg/mL (≈ 40.6 µM). For the same molecule, the MIC90 (Streptococcus pyogenes) was 1 µg/mL (≈ 2.54 µM) and the MIC90 (Staphylococcus aureus [4]) was 4 µg/mL (≈ 10.1 µM).

In the case of `C[C@@H]1[C@H](NC(=O)/C(=N\OCc2cc3cc(O)c(O)cc3cc2C(=O)O)c2csc(N)n2)C(=O)N1S(=O)(=O)O`, the Activity (Pseudomonas aeruginosa) was “Active”.

With `CC[C@H]1OC(=O)[C@H](C)[C@@H](OC2CC(C)(O)C(O)C(C)O2)[C@H](C)[C@@H](OC2OC(C)CC(N(C)C)C2O)[C@](C)(OC)C[C@@H](C)C(=O)[C@H](C)[C@@H](O)[C@]1(C)O` (stereo not given in full) the Activity (Pasteurella multocida) was “Active”, the Activity [15] was “Active” and the Activity (Helicobacter pylori) was “Exihibits good activity”. The Activity [16] was “Active”, the Activity (Streptococcus sp.) was “Exihibits good activity” and the Activity (Haemophilus influenzae [17]) was “Active”. The Activity (Chlamydia) was “Active”.
